Measured values as given in PubChem BioAssay AID1963875 (Molecular Pharmacology Branch, DTP, NCI, 2024).

System: KRAS-mutant PDC complex spheroid viability
Test: Anticancer human tumor 186277-243-T-J2-PDC patient-derived colon adenocarcinoma cell line growth inhibition [KRAS2]
Conditions: for IC50: curve of first compound; for viability, T/C: stronger effect = lower value
Outline: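 KRAS-mutant tumor cells were grown as spheroids with HUVEC endothelial cells and human MSCs as stroma. Targeted agents were tested alone and with KRAS pathway inhibitors. Doses started at or near clinical Cmax, or 10 microM, descending half-log.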

[1] = second compound 0.1 µM, first compound 0.0316 µM
[2] = second compound 0.1 µM, first compound 0.1 µM
[3] = second compound 0.1 µM, first compound 0.316 µM
[4] = second compound 0.1 µM, first compound 1 µM
[5] = second compound 0.1 µM, first compound 3.16 µM
[6] = second compound 0.1 µM, first compound 10 µM
[7] = second compound 0.316 µM, first compound 0.0316 µM
[8] = second compound 0.316 µM, first compound 0.1 µM
[9] = second compound 0.316 µM, first compound 0.316 µM
[10] = second compound 0.316 µM, first compound 1 µM
[11] = second compound 0.316 µM, first compound 3.16 µM
[12] = second compound 0.316 µM, first compound 10 µM
[13] = second compound 1 µM, first compound 0.0316 µM
[14] = second compound 1 µM, first compound 0.1 µM
[15] = second compound 1 µM, first compound 0.316 µM
[16] = second compound 1 µM, first compound 1 µM
[17] = second compound 1 µM, first compound 3.16 µM
[18] = second compound 1 µM, first compound 10 µM
[19] = second compound 3.16 µM, first compound 0.0316 µM
[20] = second compound 3.16 µM, first compound 0.1 µM
[21] = second compound 3.16 µM, first compound 0.316 µM
[22] = second compound 3.16 µM, first compound 1 µM
[23] = second compound 3.16 µM, first compound 3.16 µM
[24] = second compound 3.16 µM, first compound 10 µM
[25] = second compound 10 µM, first compound 0.0316 µM
[26] = second compound 10 µM, first compound 0.1 µM
[27] = second compound 10 µM, first compound 0.316 µM
[28] = second compound 10 µM, first compound 1 µM
[29] = second compound 10 µM, first compound 3.16 µM
[30] = second compound 10 µM, first compound 10 µM
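For viability, T/C in this document: viability read after seven days of compound exposure; 100% = DMSO vehicle-treated spheroids so lower means less viable.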

Structure (SMILES)	IC50 (second compound 0.1 µM)	IC50 (second compound 0.316 µM)	IC50 (second compound 1 µM)	IC50 (second compound 3.16 µM)	IC50 (second compound 10 µM)	viability, T/C [1]	viability, T/C [2]	viability, T/C [3]	viability, T/C [4]	viability, T/C [5]	viability, T/C [6]	viability, T/C [7]	viability, T/C [8]	viability, T/C [9]	viability, T/C [10]	viability, T/C [11]	viability, T/C [12]	viability, T/C [13]	viability, T/C [14]	viability, T/C [15]	further results
COC(=O)c1ccc2c(C(=Nc3ccc(N(C)C(=O)CN4CCN(C)CC4)cc3)c3ccccc3)c(O)[nH]c2c1 + CNCc1ccccc1-c1csc(C(C)Nc2nc(C)nc3cc(OC)c(OC)cc23)c1	1840 nM	1140 nM	727 nM	< 31.6 nM	< 31.6 nM	97.4%	94.1%	120%	92.6%	12.3%	6.55%	101%	102%	105%	56.5%	0.86%	1.8%	104%	109%	101%	viability, T/C [16]: 30.5%; viability, T/C [17]: 0.19%; viability, T/C [18]: 0.16%; viability, T/C [19]: 25.5%; viability, T/C [20]: 20.5%; viability, T/C [21]: 0.12%; viability, T/C [22]: 0.06%; viability, T/C [23]: 0.03%; viability, T/C [24]: 0.1%; viability, T/C [25]: 0.13%; viability, T/C [26]: 0.12%; viability, T/C [27]: 0.1%; viability, T/C [28]: 0.08%; viability, T/C [29]: 0.09%; viability, T/C [30]: 0.14%
COc1cc(Nc2ncc3c(n2)-c2ccc(Cl)cc2C(c2c(F)cccc2OC)=NC3)ccc1C(=O)O + CNCc1ccccc1-c1csc(C(C)Nc2nc(C)nc3cc(OC)c(OC)cc23)c1	< 31.6 nM	< 31.6 nM	< 31.6 nM	< 31.6 nM	< 31.6 nM	35.7%	32.4%	29.4%	34.1%	44.2%	43.8%	32.8%	27.8%	28.8%	29.7%	38.3%	40.8%	30.1%	31.6%	25.9%	viability, T/C [16]: 30.7%; viability, T/C [17]: 35%; viability, T/C [18]: 35.9%; viability, T/C [19]: 4.28%; viability, T/C [20]: 5.85%; viability, T/C [21]: 4.27%; viability, T/C [22]: 3.03%; viability, T/C [23]: 0.28%; viability, T/C [24]: 0.7%; viability, T/C [25]: 0.12%; viability, T/C [26]: 0.11%; viability, T/C [27]: 0.12%; viability, T/C [28]: 0.15%; viability, T/C [29]: 0.11%; viability, T/C [30]: 0.19%
COc1cc2nccc(Oc3ccc(NC(=O)C4(C(=O)Nc5ccc(F)cc5)CC4)cc3)c2cc1OC + CNCc1ccccc1-c1csc(C(C)Nc2nc(C)nc3cc(OC)c(OC)cc23)c1	1850 nM	1910 nM	1680 nM	< 31.6 nM	< 31.6 nM	112%	106%	115%	93.3%	11.4%	12.4%	113%	104%	113%	100%	10.8%	4.47%	102%	112%	121%	viability, T/C [16]: 85.7%; viability, T/C [17]: 6.86%; viability, T/C [18]: 2.01%; viability, T/C [19]: 45.5%; viability, T/C [20]: 48%; viability, T/C [21]: 26.6%; viability, T/C [22]: 0.18%; viability, T/C [23]: 0.06%; viability, T/C [24]: 0.12%; viability, T/C [25]: 0.16%; viability, T/C [26]: 0.15%; viability, T/C [27]: 0.13%; viability, T/C [28]: 0.13%; viability, T/C [29]: 0.13%; viability, T/C [30]: 0.21%
